Reference: patent US10842794B2, “Use of Sigma-1 receptor agonist compounds” (MTA TÁMOGATOTT KUTATÓCSOPORTOK IRODÁJA, priority 2014, dated 2020)

What was measured:
NRK49F cells = test: Cell viability MTT assay in myofibroblasts; type: cell-based, rat; settings: 24-hours treatment, commonly used doses 1-10 μM
[1] = tested on: NRK49F rat kidney interstitial fibroblast cell lines; test: PDGFB-induced myofibroblast proliferation (MTT); type: cell-based; settings: 10 ng/mL PDGFB, 24 hours, different concentrations of agonist
[2] = tested on: collagen I and collagen III mRNA in NRK49F cells; test: TGFβ-induced collagen-1 and collagen-3 production, quantitative RT-PCR; type: cell-based, rat; settings: 20 μM/L fluvoxamine
[3] = tested on: Streptozotocin induced type 1 diabetic rats; test: Diabetic rat kidney: Masson's trichrome staining, tubulointerstitial fibrosis; type: in vivo
[4] = tested on: Streptozotocin induced type 1 diabetic rats; test: Diabetic rat kidney: PAS staining, mesangial matrix expansion; type: in vivo
[5] = tested on: Streptozotocin induced type 1 diabetic rats; test: Diabetic rat kidney: fibronectin staining; type: in vivo; settings: fluvoxamine 20 mg/bwkg/day for 2 weeks from the 5th week of diabetes
[6] = tested on: Streptozotocin induced type 1 diabetic rats; test: Diabetic rat kidney: Sirius Red staining of ECM components; type: in vivo; settings: long term 7-weeks fluvoxamine treatment
[7] = tested on: Streptozotocin induced type 1 diabetic rats; test: Diabetic rat kidney: αSMA protein level, western blot; type: in vivo; settings: fluvoxamine, predominantly the dose of 20 mg
[8] = tested on: mice with unilateral ureter obstruction (UUO); test: Mice model of unilateral ureteral obstruction (UUO): Masson's trichrome, tubulointerstitial fibrosis; type: in vivo; settings: fluvoxamine 20 mg/bwkg/day for one week, 7 days after UUO
[9] = tested on: mice with unilateral ureter obstruction (UUO); test: Mice model of UUO: αSMA protein in kidney, western blot; type: in vivo; settings: one week fluvoxamine treatment 20 mg/bwkg/day
[10] = tested on: rat model of bleomycin-induced lung fibrosis; test: Rat model of bleomycin induced pulmonary fibrosis: Masson trichrome staining of lung; type: in vivo; settings: fluvoxamine 20 mg/bwkg/day per os
Method: Masson trichrome staining of tissue sections was performed Bars represent Mean±SEM, n=6/group). Specifically:
(§1) For the induction of pulmonary fibrosis male Wistar rats were anesthetized. Bleomycin (5 mg/bwkg in a 300 μl solution of isotonic saline) or 300 μl isotonic saline was administered into the trachea using a 30G needle.
(§2) Animals were randomly divided into 4 groups of 6 rats each as follows (i)—control group was sham operated, received isotonic saline per os daily for 3 weeks, (ii) vehicle treated group: received isotonic saline per os daily for 3 weeks after the induction of lung fibrosis, (iii) fluvoxamine treated group: received fluvoxamine (20 mg/bwkg/day per os for 3 weeks after the induction of lung fibrosis), (iv) fluvoxamine+NE100 treated group: received fluvoxamine (20 mg/bwkg/day; per os) and 1 mg/bwkg/day NE100 (i.p. for 3 weeks after the induction of lung fibrosis. […]
The stained sections were viewed and photographed with Pannoramic 250 Flash and Pannoramic Viewer 1.15.2 (3D HISTECH Ltd. Budapest, Hungary) Adobe Photoshop 13.0 and Scion Image for Windows software were used for the analysis. […] Finally these ratios were statistically analyzed in all of the treatment groups.

[11] = tested on: rat model of bleomycin-induced lung fibrosis; test: Rat model of bleomycin induced pulmonary fibrosis: αSMA protein in lung, western blot; type: in vivo; settings: fluvoxamine 20 mg/bwkg/day, three weeks after bleomycin
Method: (Bars represent Mean±SEM, n=6/group).
as §1, §2
Tissue samples were lysed in buffer containing leupeptin, aprotinin, Triton X-100, Tris-HCl, Ethylene glycol-bis (2-aminoethylether),N,N,N′,N′-tetraacetic-acid, NaF, Phenylmethylsulphonylfluoride and Na-orthovanadate (each substance were purchased from Sigma-Aldrich Co., St. Louis, Mo., USA) and centrifuged to pellet nuclei and large cellular fragments. Protein concentration of the supernatants was determined by Bradford assay (Bio-Rad Laboratories, Hercules, Calif., USA). […] Bands were analyzed with Quantity One software version 4.6.9. […]

[12] = tested on: FN1, COL1A1 and MMP2 mRNA in HTM-5 cells; test: Fibrotic marker mRNA expression in HTM-5 cells (RT-PCR); type: cell-based, human; settings: normalised to RN18S
[13] = tested on: human trabecular meshwork-5 (HTM-5) cells; test: Actin cytoskeleton rearrangement in HTM-5 cells (phalloidin F-actin staining); type: cell-based; settings: 24 h, 20 ng/mL PDGF and 10 μM FLU
NRK49F myofibroblasts = settings: all applied concentrations, even the smallest 1 μM
Method: In 6-well plates of NRK49F myofibroblasts (6×10^6 cells/well) TGF-β (1 nM) induced production of fibrillar components of the extracellular matrix was measured by Sirius Red staining. To investigate the effect of S1R agonist compounds a group of cells was treated for 48 hours with the various S1R agonists. Solvent treated cells served as controls. (Bars represent mean±SEM)
To investigate the deposition of fibrillar collagen Sirius Red staining was performed. 48 hours after the treatment with TGF-β and said compounds the NRK-49F cells were incubated for 10 minutes with Kahle fixative solution. 0.1% Sirius Red (Direct Red 80, Sigma-Aldrich) in 1.2% picric acid was added for each well and plates were incubated for 30 minutes at RT. The unconnected dye molecules were washed with distilled water. The bound Sirius Red dye was eluated with 0.1 M NaOH solution, absorbance was recorded at 540 nm in a Hidex Chameleon Microplate Reader (Triathler, Plate Chameleion, 300SL Lablogic Systems, Inc., Brandon, Fla., USA) used MikroWin program. Vehicle treated cells served as controls.

With `COCCCC/C(=N\OCCN)c1ccc(C(F)(F)F)cc1` [fluvoxamine, 2-{[(E)-{5-Methoxy-1-[4-(trifluoromethyl)phenyl]pentylidene}amino]oxy}ethanamine] the “cytotoxicity / cell viability in myofibroblasts” value (NRK49F cells) was “not cytotoxic”, the PDGF-induced myofibroblast proliferation [1] was “significantly decreased PDGF-induced myofibroblast proliferation” and the “mRNA expression of collagen-1 and collagen-3” value ([2]; by 24 hours) was “remarkably diminished”. For the same compound, the “collagen production (collagen-1 and collagen-3 mRNA)” value ([2]; by 48 hours) was “returned to the level of normal controls”, the “diabetes induced tubulointerstitial fibrosis (Masson's trichrome)” value ([3]; fluvoxamine 20 mg 7 weeks, 20 mg 2 weeks, 2 mg 2 weeks per os) was “ameliorated the diabetes induced tubulointerstitial fibrosis” and the “renal structure (Masson's trichrome)” value ([3]; long-term (7-weeks) fluvoxamine 20 mg/bwkg/day) was “restored almost the normal renal structure”. For the same compound, the “extent of mesangial matrix expansion (PAS)” value ([4]; all doses of fluvoxamine) was “remarkably diminished”, the “prevention of renal tissue damage (PAS), comparison of regimens” value ([4]; long-term (7-weeks) fluvoxamine treatment) was “most effective in preventing renal tissue damage” and the “fibrotic lesion (fibronectin staining) versus diabetic rats” value [5] was “smaller”. The “diabetes induced excessive ECM accumulation (Sirius Red)” value [6] was “significantly reduced”, the “αSMA protein level in kidney of diabetic rats” value [7] was “reduced αSMA protein level by the half” and the “tubulointerstitial fibrosis after UUO (Masson's trichrome)” value [8] was “decreased tubulointerstitial fibrosis”. For the same compound, the “UUO-induced αSMA production in kidney” value [9] was “successfully decreased UUO-induced αSMA production”, the “fibrotic lesions of the lung after bleomycin (Masson trichrome)” value [10] was “prevented almost totally the fibrotic effect of bleomycin” and the “bleomycin-induced αSMA production in the lung” value [11] was “successfully reduced bleomycin-induced αSMA production nearly to the level of controls”. For the same compound, the “COL1A1 (collagen1a1) mRNA expression” value ([12]; 20 ng/ml PDGF plus 5 μM FLU) was “inhibit the expression of each fibrosis marker tested in a dose dependent manner”, the “FN1 (fibronectin) mRNA expression” value ([12]; 20 ng/ml PDGF plus 5 μM FLU) was “inhibit the expression of each fibrosis marker tested in a dose dependent manner” and the “MMP2 (matrix metalloproteinase 2) mRNA expression” value ([12]; 20 ng/ml PDGF plus 10 μM FLU) was “inhibit the expression of each fibrosis marker tested in a dose dependent manner”. For the same compound, the “fibrotic rearrangement and active production of actin filaments” value [13] was “blocked” and the “TGFβ-induced ECM production (Sirius Red)” value (NRK49F myofibroblasts) was “significantly inhibited TGFβ-induced ECM production”.
